Test results as given in patent publication US12398125B2, “Nitrogen-containing saturated heterocyclyl derivative” (Sumitomo Pharma Co., Ltd., priority 2022, dated 2025).
Counter-ions that a name gives are not always drawn.

System: α-synuclein aggregate in neurospheroid prepared from human iPS cells with a mutation in PLA2G6 gene
Test: Test 2: suppressing the accumulation of α-synuclein aggregate with neurospheroid
Assay type: cell-based
Conditions: 120 h, DMSO = 100%, compound added day 4, measured day 9 after induction of differentiation; for activity at 0.1 µM: 100 nM, read-out: Amount of aggregate (%) 100 nM; for activity at 1 µM: 1000 nM, read-out: Amount of aggregate (%) 1000 nM
Experimental: Test 2: Evaluation of Suppressing the Accumulation of α-Synuclein Aggregate with Neurospheroid Prepared from Human iPS Cells with a Mutation in PLA2G6 Gene
(1) Induction of Differentiation from Human iPS Cell to Neural Cell
Neural stem cells were induced from PLA2G6 gene mutant iPS cells with PSC Neuronal Induction Medium (Thermo Fisher Scientific Inc., cat #A1647801). Neurospheroid was prepared from the induced neural stem cells by three-dimensional culture system, and preserved with BrainPhys Neuronal Medium (STEMCELL Technologies, cat #ST-05793) comprising NeuroCult SM1 Neuronal Supplement, N2 Supplement-A, 20 ng/mL BDNF, 20 ng/mL GDNF, 1 mM dibutyryl cAMP, and 200 nM ascorbic acid. Half of the culture medium was replaced on day 2 and day 4 after the induction of differentiation.
The test compound was diluted with the culture medium so as to be twice the final concentration, and an equal volume of the twice-concentrated solution was added to each well when half of the culture medium was replaced on day 4 after induction of differentiation.
(2) Evaluation of the Amount of α-Synuclein Aggregate
From the neurospheroid 9 days after the induction of differentiation, proteins were extracted with a TBS solution containing 1% TritionX-100, and the extracted proteins were subjected to a protein analysis with Simple Western system (Protein Simple, Inc., cat #SM-W008) using an α-synuclein antibody (Thermo Fisher Scientific Inc., cat #AHB0261) to measure the amount of the α-synuclein aggregate.
Assuming that the amount of the aggregate in the neurospheroid added with a DMSO solution is 100%, the amount of the aggregate in the neurospheroid added with each test compound was evaluated.

Structure (SMILES) | activity at 0.1 µM [%] | activity at 1 µM [%]
CC1(C(=O)N2CCC(c3cnccc3C(F)(F)F)CC2)COC1 [Example 3, (3-methyloxetan-3-yl){4-[4-(trifluoromethyl)pyridin-3-yl]piperidin-1-yl}methanone] | 6 | 10
CC1(C(=O)N2CCC(c3cccnc3C(F)(F)F)CC2)COC1 [Example 4, (3-methyloxetan-3-yl){4-[2-(trifluoromethyl)pyridin-3-yl]piperidin-1-yl}methanone] | 30 | 29
CCC1(C(=O)N2CCC(c3cncc(C(F)(F)F)c3)CC2)COC1 [Example 6] | 97 | 81
CCC1(C(=O)N2CCC(c3cccnc3C(F)(F)F)CC2)COC1 [Example 7] | 23 | 52
CCC1(C(=O)N2CCC(c3cnccc3C(F)(F)F)CC2)COC1 [Example 8] | 7 | 13
CCC1(C(=O)N2CCC(c3ccc(C(F)(F)F)cn3)CC2)COC1 [Example 10] | 25 | 29
CC1(C(=O)N2CCCC(c3ccc(C(F)(F)F)nc3)C2)COC1 (centres unmarked) [Example 11] | 3 | 97
CCC1(C(=O)N2CCCC(c3ccc(C(F)(F)F)nc3)C2)COC1 (centres unmarked) [Example 12] | 35 | 12
CC1(C(=O)N2CC(c3ccc(C(F)(F)F)nc3)C2)COC1 [Example 13] | 11 | 7
CC1(C(=O)N2CCC(c3ccc(C(F)(F)F)nc3)C2)COC1 (centres unmarked) [Example 14] | 37 | 22
CCC1(C(=O)N2CCC(c3ccc(C(F)(F)F)nc3)C2)COC1 (centres unmarked) [Example 15] | 23 | 48
C[C@H]1C[C@@H](c2ccc(C(F)(F)F)nc2)CCN1C(=O)C1(C)COC1 [Example 16] | 26 | 106
C[C@H]1C[C@H](c2ccc(C(F)(F)F)nc2)CCN1C(=O)C1(C)COC1 [Example 17] | 28 | 40
CCC1(C(=O)N2CC[C@H](c3ccc(C(F)(F)F)nc3)C[C@@H]2C)COC1 [Example 18] | 81 | 80
CCC1(C(=O)N2CC[C@@H](c3ccc(C(F)(F)F)nc3)C[C@@H]2C)COC1 [Example 19] | 5 | 18
CC1(C(=O)N2CCC(O)(c3ccc(C(F)(F)F)nc3)CC2)COC1 [Example 20] | 2 | 91
CC1(C(=O)N2CCC(F)(c3ccc(C(F)(F)F)nc3)CC2)COC1 [Example 21] | 73 | 77
O=C(C1CCOCC1)N1CCC(c2ccc(C(F)(F)F)nc2)CC1 [Example 22] | 24 | 50
CC1(C(=O)N2CCC(c3ccc(C(F)(F)F)nc3)CC2)CCOCC1 [Example 23] | 23 | 49
O=C(C1CCOC1)N1CCC(c2ccc(C(F)(F)F)nc2)CC1 (centres unmarked) [Example 24] | 46 | 39
O=C([C@H]1CCOC1)N1CCC(c2ccc(C(F)(F)F)nc2)CC1 [Example 25] | 80 | 71
O=C([C@@H]1CCOC1)N1CCC(c2ccc(C(F)(F)F)nc2)CC1 [Example 26] | 26 | 33
O=C([C@H]1CCCO1)N1CCC(c2ccc(C(F)(F)F)nc2)CC1 [Example 27] | 5 | 29
O=C([C@@H]1CCCO1)N1CCC(c2ccc(C(F)(F)F)nc2)CC1 [Example 28] | 23 | 63
CCC1(C(=O)N2CCC(c3cnc(C(F)(F)F)c(F)c3)CC2)COC1 [Example 30] | 16 | 56
Cc1cc(C(F)(F)F)ncc1C1CCN(C(=O)C2(C)COC2)CC1 [Example 31, (3-methyloxetan-3-yl){4-[4-methyl-6-(trifluoromethyl)pyridin-3-yl]piperidin-1-yl}methanone] | 14 | 1
CC1(C(=O)N2CCC(c3ccc(C(F)(F)F)nc3)CC2)CNC1 [Example 33, (3-Methylazetidin-3-yl){4-[6-(trifluoromethyl)pyridin-3-yl]piperidin-1-yl}methanone] | 22 | 22
CC1(C(=O)N2CCC(c3cccnc3C(F)(F)F)CC2)CNC1 [Example 34] | 43 | 127

Structure (SMILES) | activity at 0.1 µM [%] | activity at 1 µM [%]
CC1(C(=O)N2CCC(c3cncc(C(F)(F)F)c3)CC2)CNC1 [Example 36] | 78 | 81
CC1(C(=O)N2CCC(c3ccc(C(F)(F)F)cn3)CC2)CNC1 [Example 37] | 13 | 106
CC1(C(=O)N2CCCC(c3ccc(C(F)(F)F)nc3)C2)CNC1 (centres unmarked) [Example 38] | 6 | 4
CC1(C(=O)N2CCC(c3ccc(C(F)(F)F)nc3)C2)CNC1 (centres unmarked) [Example 39] | 92 | 70
O=C(C1CCNCC1)N1CCC(c2ccc(C(F)(F)F)nc2)CC1 [Example 40] | 29 | 8
CN1CC(C)(C(=O)N2CCC(c3ccc(C(F)(F)F)nc3)CC2)C1 [Example 41, (1,3-Dimethylazetidin-3-yl){4-[6-(trifluoromethyl)pyridin-3-yl]piperidin-1-yl}methanone hydrochloride] | 57 | 70
CN1CC(C)(C(=O)N2CCC(c3cnccc3C(F)(F)F)CC2)C1 [Example 43, (1,3-dimethylazetidin-3-yl){4-[4-(trifluoromethyl)pyridin-3-yl]piperidin-1-yl}methanone] | 9 | 11
CN1CC(C)(C(=O)N2CCCC(c3ccc(C(F)(F)F)nc3)C2)C1 (centres unmarked) [Example 46] | 38 | 25
CN1CC(C)(C(=O)N2CCC(c3ccc(C(F)(F)F)nc3)C2)C1 (centres unmarked) [Example 47] | 1 | 55
CN1CCC(C(=O)N2CCC(c3ccc(C(F)(F)F)nc3)CC2)CC1 [Example 48] | 16 | 21
O=C(N1CCOCC1)N1CCC(c2ccc(C(F)(F)F)nc2)CC1 [Example 49, (Morpholin-4-yl){4-[6-(trifluoromethyl)pyridin-3-yl]piperidin-1-yl}methanone] | 13 | 18
O=C(C1COC1)N1CCC(c2ccc(C(F)(F)F)nc2)CC1 [Example 50] | 86 | 101
CC1(C)CC(C(=O)N2CCC(c3ccc(C(F)(F)F)nc3)CC2)CCO1 (centres unmarked) [Example 51] | 100 | 87
CC1(C(=O)N2CCC(c3ccnc(C(F)(F)F)c3)CC2)COC1 [Example 52] | 36 | 100
CC1(C(=O)N2CCC(c3ccncc3C(F)(F)F)CC2)COC1 [Example 53] | 106 | 82
CC1(C(=O)N2CCC(c3ccc(Cl)nc3)CC2)COC1 [Example 54] | 63 | 35
Cc1ccc(C2CCN(C(=O)C3(C)COC3)CC2)cn1 [Example 55] | 75 | 45
CC(C)c1ccc(C2CCN(C(=O)C3(C)COC3)CC2)cn1 [Example 56] | 30 | 71
CC1(C(=O)N2CCC(c3ccc(C(F)(F)F)nn3)CC2)COC1 [Example 57] | 88 | 50
CC1(C(=O)N2CCC(c3ccnc(C(F)(F)F)n3)CC2)COC1 [Example 58] | 88 | 116
CC1(C(=O)N2CCC(c3cnc(C(F)(F)F)cn3)CC2)COC1 [Example 59] | 100 | 87
O=C(N1CCCOCC1)N1CCC(c2ccc(C(F)(F)F)nc2)CC1 [Example 60, (1,4-Oxazepan-4-yl){4-[6-(trifluoromethyl)pyridin-3-yl]piperidin-1-yl}methanone] | 67 | 96
CC1(C)CN(C(=O)N2CCC(c3ccc(C(F)(F)F)nc3)CC2)CCO1 [Example 61] | 72 | 49
O=C(N1CCC(c2ccc(C(F)(F)F)nc2)CC1)N1C[C@H]2CC[C@@H](C1)O2 [Example 62] | 81 | 51
CC1(C)COCCN1C(=O)N1CCC(c2ccc(C(F)(F)F)nc2)CC1 [Example 63] | 68 | 58
CCN1CC(C)(C(=O)N2CCC(c3ccc(C(F)(F)F)nc3)CC2)C1 [Example 64] | 109 | 86
CCCN1CC(C)(C(=O)N2CCC(c3ccc(C(F)(F)F)nc3)CC2)C1 [Example 65] | 57 | 80
